Where no end group is shown, it is not given here.
What was measured:
mice = assay: Blood glucose concentration kinetics of IGF-2 vs. insulin in a glucose tolerance test; format: in vivo, mouse; settings: insulin 1 unit per kg, IGF-2 800 μg/kg
Text: IGF-2 therefore provides an effect that mimics insulin within the body, and that effect is referred to herein as an “insulinomimetic” effect. […] In this example, administering IGF-2 can provide better results than administering insulin with respect to blood glucose levels, even when only a single dose was used. Without being bound by this theory, it is possible that the IGF-2 combines with a number of binding proteins in the blood and its active free form is then released slowly from the complex.

β-MIN6 cells = assay: Insulin secretion of β-MIN6 cells following glucose induction; format: cell-based, mouse; settings: 1 week treatment; IGF-2 5 nM, 20 nM, 80 nM
Text: β-MIN6 cells serve as an in vitro model of mouse pancreatic islets. β-MIN6 cells were used as an in vitro model to measure the effects of treatment with IGF-2.

STZ-treated mouse islets [1] = assay: Insulin secretion from STZ-treated mouse islets; format: cell-based; settings: islets treated with 2.5 mM STZ; 48 hours after treatment; IGF-2 50 nM and 500 nM, GLP-1 100 nM and 1000 nM
Protocol: Mouse islet cells were treated with 2.5 mM STZ and subsequently treated with either IGF-2 (FA) at 50 nM and 500 nM, or with GLP-1 at 100 nM and 1000 nM.

STZ-treated mouse islets [2] = assay: MTT viability of STZ-treated mouse islets; format: cell-based; settings: increasing concentrations
Text: Yellow dye MTT is converted to a purple dye by mitochondrial reductase in viable cells. Therefore, the amount of purple dye present determined by measuring optical density of cells at 570 nm serves as a measurement of cell viability.

Row | Substance | glucose level after administration (mice; glucose tolerance test in mice) | time after which the recovery in glucose levels began (mice; single dose) | insulin secretion following glucose induction (β-MIN6 cells) | insulin secretion (STZ-treated mouse islets [1]) | mouse islet viability (MTT, optical density at 570 nm) (STZ-treated mouse islets [2])
1 | insulin [reference compound] | the glucose level decreased | after two hours |  |  | 
2 | GLP-1 (HAEGTFTSDVSSYLEGQAAKEFIAWLVKGR; ends and bridges not checked; UniProt P01275 98-127, looked up) [a satiety hormone, comparator in vitro, reference compound] |  |  | does not increase insulin secretion | did not significantly increase insulin secretion | did not significantly increase mouse islet viability

Reference: patent publication US12447198B2, “Peptides and fragments for treating diabetes and associated metabolic diseases” (Betavive Ltd., priority 2021, dated 2025)
